# Biological target: T1, IFN-α 2b (Homo sapiens, UniProt P01563)
# T1 construct: purchased Sigma-Aldrich SRP4595; host or cells: E. coli
# Assay: Microscale thermophoresis (MST) binding affinity of FILs with labelled IFN-α 2b
# Settings: for Kd: labelled IFN-α 2b 2.7 μM, 5 mM NaH2PO4 pH 7.4, 25 °C, ± = Kd confidence of the fitting
# Method: Several dilution series of 16 samples of 20 μL were prepared in triplicate for each studied system. All the solutions were prepared in the buffer of the protein, 5 mM of NaH2PO4 (pH = 7.4), and PCR tubes. In the first tube (1 out 16) 20 μL of FIL stock solution was added at twofold the maximum concentration defined for each assay. In the remaining 15 tubes, 10 μL of buffer was added, followed by the series dilution of the FIL. […] The selected concentrations cover the range where the distinct CACs are formed in each FIL. The excitation power was determined by a pre-test and set to 20% whereas the MST power was set to medium (standard). The assays were executed in standard capillaries and triplicates. The results were processed using the MO.Affinity Analysis v2.3 software (NanoTemper Technologies, Munich, Germany).
# In the process of labelling, commonly, one amine per protein is labelled, statistically distributing the position of the dye. […] As explained in the experimental section, in each run of MST, a maximum concentration is chosen and is consecutively diluted in 16 capillaries.
# T1 sequence (P01563 24-188): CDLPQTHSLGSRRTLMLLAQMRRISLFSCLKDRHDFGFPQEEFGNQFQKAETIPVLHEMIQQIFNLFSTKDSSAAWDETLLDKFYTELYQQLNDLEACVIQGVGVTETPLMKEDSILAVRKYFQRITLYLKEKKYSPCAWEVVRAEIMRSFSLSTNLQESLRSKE
smiles,measurement,setting,value
"CCn1cc[n+](C)c1.O=S(=O)([O-])C(F)(F)C(F)(F)C(F)(F)C(F)(F)F [[C2C1Im][C4F9SO3], 1-Ethyl-3-methylimidazolium perfluorobutanesulfonate]",Kd,assay 30 − 9.2 × 10^−4 mM FIL,0.136 ± 0.117 mM
same,Kd,assay 80 − 2.4 × 10^−3 mM FIL,7.53 ± 5.61 mM
same,Kd,assay 160 − 4.9 × 10^−3 mM FIL,40.5 ± 29.5 mM
same,binding to IFN-α 2b (MST),"range of concentrations under the 1st CAC, only FIL monomers",no binding was detected

# Source: publication PMC9181987, “Disclosing the Potential of Fluorinated Ionic Liquids as Interferon-Alpha 2b Delivery Systems” (Nanomaterials, 2022)
